The values that follow come from US20110212909A1, “Use of Ginsenoside Compound K in the Preparation of a Medicament for the Prevention and Treatment of Atherosclerosis” (priority 2008, published 2011).

The subject of one experiment is perilipin mRNA. As to the kind of experiment: Real-time quantitative PCR of perilipin mRNA in apo E−/− mouse aorta. Conditions: apo E−/− mice, 15 weeks. It counts as in vivo.
Another experiment deals with apo E−/− mouse. Kind of experiment: Blood fat assay in serum of apo E−/− mice on Western Diet. It counts as in vivo. The settings on record: for HDL-C in serum / LDL-C in serum / TC in serum / TC-HDL/HDL / TG in serum: 15 weeks. The method, then:
80 healthy clean grade C57BL/6J apo E^−/^− mice of 10 weeks old, wherein male and female mice were fifty-fifty, weight 20-22 g, were breed and divided into individual cage in sterile laminar flow rack, allowing mice to freely drink water and get food. Mice were raised for 30 weeks by “Western Diet” (routine mouse feed +0.15% cholesterol +21% fat) high fat feed (^60cobalt sterilization radiation treatment), with raising conditions being SPF grade, room temperature maintained at 24° C., relative humidity of 50%, and lighting time of 7: 30-19: 30. Animal house was sterilized by ultraviolet lamp once every two days, in order to maintain sterile environment of laminar flow rack (establishment of animal model of atherosclerosis refers to reference: Barish G D, Atkins A R, Downes M, Olson P, Chong L W, Nelson M, Zou Y H, Hwang H S, Kang H J, Curtiss L, Evans R M, Lee C H. PPARδ regulates multiple proinflammatory pathways to suppress atherosclerosis. Proc Natl Acad Sci, 2008, 105 (11): 4271-4276.).
5 mice of apo E^−/^− mice raised for 15 weeks were randomly selected and sacrificed, root of aorta of which was taken, and replication condition in AS model was observed by HE staining. The remaining mice were randomly divided into 5 groups as follows (n=15):
A. model group: vehicle; B. ginsenoside compound K low dose group: ginsenoside compound K 12.5 mg/kg/day; C. ginsenoside compound K middle dose group: ginsenoside compound K 25.0 mg/kg/day; D. ginsenoside compound K high dose group: ginsenoside compound K 50.0 mg/kg/day; E. simvastatin control group: simvastatin 10.0 mg/kg/day.
Above drugs were firstly solved in DMSO, then suspended in 0.5% carboxymethylcellulose solution, mixed homogeneously, and then were administered via gavage, once a day. Mice were weighted once a week, and ingestion amounts were recorded, and drug doses were adjusted according to weight, interfering for 15 weeks. All the animal were sacrificed in 30th week.
apo E^−/^− mouse serum sample: apo E^−/^− mice were interfered by drug for 15 weeks, then were fasted for 12 hours before sampling. Before being sacrificed, mice were anesthetized by 0.5-1.0 mL 1% Pentobarbital via abdominal cavity, and under sterile condition, 1.5 mL blood form their eye sockets venous plexus was sampled, and centrifugated at 2500 r/min for 10 minutes, and then serum was separated, and frozen and stored at −80° C., for determining blood fat concentrations and inflammatory markers in serum.
• blood fat assay: TC, TG, HDL-C, and LDL-C concentrations in serum were determined by applying Olympus Au2700 fully automatic biochemical appearance. • serum inflammatory markers assay: hs-CRP and sCD40L concentrations were determined by applying double antibody sandwich ELISA, in accordance with ELISA kit operating instruction (hs-CRP ELISA kit bought from Herrenberg company, Germany; sCD40L ELISA kit bought from Bender Medsystems company, Austria). • real-time quantitative PCR analysis was carried out on expression of CD36, perilipin, ABCA1, LXRα, MMP-9 and NF-κ B mRNA in apo E^−/^− mouse aorta (a reference method: Zhang Yiguan, Li Xiaohui, Fan Jishan, Zhang Haigang, Li Shuhui, Liao Wenqiang, Pang Yan, Jia Yi. Total panax notoginsenosides suppress atherosclerosis formation in rats by means of antiinflammatory and blood fat regulating action. Progress in Modern Biomedicine. 2007, 27 (11): 1601-1607)0 • morphology index image analysis: When slices were HE stained, under X40 fold ordinary light microscope, artery atherosclerosis plaque area of each incisal surface was determined by “Image Pro Plus 5.0” image analysis software. Plaque area (PA), vessel cross section area (CVA), lipid core area (LCA), and minimal fibrous cap thickness (mFCT) were measured, and corrected plaque area (plaque area/vessel cross section area, PA/CVA) and corrected lipid core area (lipid core area/plaque area, LCA/PA) were calculated, and average of 4 incisal surfaces was taken for each sample. […]

The test system of a further experiment is CD36 mRNA. Kind of experiment: Real-time quantitative PCR of CD36 mRNA in foam cells. The settings on record: 25 μM, rat foam cells. The format is cell-based. The method, then: FIG. 1 provides effects of a ginsenoside compound K (C-K, 25 μM) and pyrrolidine dithiocarbamate (PDTC, 25 μM) on the foam cell CD36 mRNA expression. a: P<0.05, vs foam cell group; b: P<0.05, vs PDTC. PDTC (25 μM) C-K (25 μM) (n=5).
(1) Material and reagents (the same as Example 2).
(2) real-time quantitative PCR analysis (a reference method: Zhang Yiguan, Li Xiaohui, Fan Jishan, Zhang Haigang, Li Shuhui, Liao Wenqiang, Pang Yan, Jia Yi. Total panax notoginsenosides suppress atherosclerosis formation in rats by means of antiinflammatory and blood fat regulating action. Progress in Modern Biomedicine. 2007, 27(11): 1601-1607).
(§1) Data was expressed as x±s, variance analysis were carried out between groups by SPSS 13.0 software.

For another experiment, the system named is ABCA1 mRNA. Kind of experiment: Real-time quantitative PCR of ABCA1 mRNA in foam cells. The settings on record: 25 μM, rat foam cells. The format is cell-based. As to the method:
FIG. 4 provides effects of a ginsenoside compound K (C-K, 25 μM) and pyrrolidine dithiocarbamate (PDTC, 25 μM) on the foam cell ABCA1 mRNA expression. a: P<0.05, vs foam cell group. PDTC (25 μM) C-K (25 μM) (n=5).
(1) Material and reagents (the same as Examples 2).
(2) real-time quantitative PCR analysis (a reference method: Zhang Yiguan, Li Xiaohui, Fan Jishan, Zhang Haigang, Li Shuhui, Liao Wenqiang, Pang Yan, Jia Yi. Total panax notoginsenosides suppress atherosclerosis formation in rats by means of antiinflammatory and blood fat regulating action. Progress in Modern Biomedicine. 2007, 27 (11): 1601-1607).
as §1

The mark [1] stands for this setting: C-K high dose 50.0 mg/kg/day gavage.
The mark [2] stands for this setting: C-K middle dose 25.0 mg/kg/day gavage.
Where [3] appears, read: simvastatin 10.0 mg/kg/day gavage.

SMILES strings stand for the structures. Marks after values point to notes of the source that are not given here.

Text for perilipin mRNA: Total RNA sample of root of aorta of apo E^−/^− mouse: Total RNA samples of root of aorta in each group mouse were extracted, and utilized for analysis of gene expression of various lipid metabolic factors, inflammatory factors, and nucleic transcription factors associated with AS plaque development.

In the case of `CC(C)=CCC[C@](C)(OC1OC(CO)C(O)C(O)C1O)C1CC[C@]2(C)C1[C@H](O)CC1[C@@]3(C)CC[C@H](O)C(C)(C)C3CC[C@]12C` (stereo partly drawn) [C-K, 20-O-β-D-glucopyranosyl 20-(S)-protopanaxadiol], the “expression of perilipin mRNA in aorta (relative concentrations)” value in the experiment with perilipin mRNA (setting [1]) was 0.51 ± 0.54^a; in the experiment on perilipin mRNA (C-K low dose 12.5 mg/kg/day gavage, model 1.08 ± 0.06) it was 0.68 ± 0.56^a; in the experiment with perilipin mRNA (setting [2]), 0.60 ± 0.49^a. Besides, in the experiment on apo E−/− mouse (C-K 12.5-50.0 mg/kg/day vs simvastatin 10.0 mg/kg/day), the “action in regulating blood fat compared with simvastatin” value was “not as good as that of simvastatin”. Further, the HDL-C in serum is 4.42 ± 1.06^a mmol/L in the experiment with apo E−/− mouse (setting [1]); 4.08 ± 1.32^a mmol/L with apo E−/− mouse (C-K low dose 12.5 mg/kg/day gavage, model 3.79 ± 1.17); 4.12 ± 1.15^a mmol/L in the experiment on apo E−/− mouse (setting [2]). The LDL-C in serum with apo E−/− mouse (setting [1]) is 6.11 ± 1.18^a mmol/L; in the experiment with apo E−/− mouse (C-K low dose 12.5 mg/kg/day gavage, model 6.99 ± 1.09) it was 6.45 ± 1.30^a mmol/L; in the experiment with apo E−/− mouse (setting [2]), 6.34 ± 1.22^a mmol/L. Moreover, the TC in serum is 20.48 ± 4.34^b mmol/L in the experiment on apo E−/− mouse (setting [1]); 21.79 ± 4.53^a mmol/L with apo E−/− mouse (C-K low dose 12.5 mg/kg/day gavage, model 23.59 ± 3.79); 21.29 ± 4.44^a mmol/L in the experiment on apo E−/− mouse (setting [2]). For the same compound, the TC-HDL/HDL in the experiment on apo E−/− mouse (setting [1]) was 3.63 ± 0.10^b; in the experiment on apo E−/− mouse (C-K low dose 12.5 mg/kg/day gavage, model 5.24 ± 0.36), 4.34 ± 0.16^a; in the experiment on apo E−/− mouse (setting [2]), 4.17 ± 0.13^b. In addition, the TG in serum in the experiment on apo E−/− mouse (setting [1]) was 2.19 ± 0.51^b mmol/L; with apo E−/− mouse (C-K low dose 12.5 mg/kg/day gavage, model 2.65 ± 0.39), 2.32 ± 0.41^a mmol/L; in the experiment on apo E−/− mouse (setting [2]), 2.28 ± 0.32^a mmol/L. The “change of CD36 mRNA expression in foam cells compared with model group” value in the experiment with CD36 mRNA is “not obvious”. The “expression of ABCA1 mRNA in foam cells compared with model group” value with ABCA1 mRNA is “significantly up-regulated”.
As to `CCC(C)(C)C(=O)O[C@H]1C[C@@H](C)C=C2C=C[C@H](C)[C@H](CC[C@@H]3C[C@@H](O)CC(=O)O3)[C@H]21` [simvastatin, reference compound], in the experiment with perilipin mRNA (setting [3]), the “expression of perilipin mRNA in aorta (relative concentrations)” value is listed as 0.23 ± 1.32^b. Besides, in the experiment with apo E−/− mouse (setting [3]), the HDL-C in serum turned out to be 3.80 ± 1.12 mmol/L, the LDL-C in serum was 1.73 ± 1.36^b mmol/L, the TC in serum is listed as 13.62 ± 4.49^b mmol/L and the TC-HDL/HDL is given as 2.58 ± 0.18^b. Besides, the TG in serum in the experiment with apo E−/− mouse (setting [3]) is on record as 1.34 ± 0.46^b mmol/L.
